Experimental data published in patent US20150313891A1, “NEURONAL NICOTINIC AGONISTS AND METHODS OF USE” (AbbVie Inc., priority 2014, published 2015).

Tests used:
MPTP-lesioned monkeys [1] = assay: Parkinsonian ratings in MPTP-lesioned monkeys; type: in vivo, squirrel monkeys (Saimiri sciureus); settings: for Parkinsonian scores Before L-dopa: 45 min before L-dopa; for Parkinsonian scores Before L-dopa / Parkinsonian scores After L-dopa: mean ± SEM, 5 monkeys; for Parkinsonian scores After L-dopa: 90 min after L-dopa (10 mg/kg)/carbidopa (2.5 mg/kg)
Text: After quarantine, all monkeys were trained to perform various motor and other tasks for future assessment of parkinsonism and other behaviors (Quik et al. 2013b, Zhang et al. 2013, Quik et al. 2007, Quik et al. 2013a). […] Sigma-Aldrich, St. Louis, Mo.) dissolved in saline (n=21), as described (Quik et al. 2013b, Zhang et al. 2013, Quik et al. 2007, Quik et al. 2013a). […] These include spatial hypokinesia (use of available cage space), body bradykinesia (slowness in body movement), manual dexterity in both left and right hands, balance (ability to hold on to the cage bars), freezing, and action tremor as described (Quik et al. 2013b, Zhang et al. 2013, Quik et al. 2007, Quik et al. 2013a). MPTP injections were repeated (1.5-1.9 mg/kg sc per time) if the monkeys were not parkinsonian and to maintain parkinsonism. Parkinsonism was rated once weekly on Monday. […] These latter two sets of monkeys had previously been given ABT-894 and ABT-107 but using somewhat different treatment regimens. The present study was done after a 7 wk washout period, at which point LIDs were similar in all groups. […] It was provided in the drinking water starting at 50 μg/ml for 2 days, increased to 150 μg/ml for another two days and then maintained at 300 μg/ml. ABT-126 was tested at 0.03, 0.10, 0.30 and 1.0 mg/kg, with each dose of ABT-126 tested for 1 or 2 wk. Statistical analyses were done using GraphPad Prism. One- or two-way ANOVA was used for multiple group comparisons followed by a Newman-Keuls or Bonferroni post hoc test. Differences in rating scores between groups were analyzed using nonparametric tests (Mann-Whitney test). Data for rating scores was provided as the median (nonparametric) or mean±SEM (parametric). A value of P ≦0.05 is considered statistically significant. Values expressed are the mean±SEM of the indicated number of monkeys.

MPTP-lesioned monkeys [2] = assay: Cognitive testing, object retrieval task; type: in vivo, squirrel monkeys (Saimiri sciureus); settings: for Attempts / Latency: 90 min after first L-dopa gavage, mean ± SEM, 5 monkeys
Text: To evaluate cognitive performance, an object retrieval task was used that measures a component of prefrontal cortex dependent cognitive control involving inhibition of an initial learned response after subsequent spatial reversals (Lyons et al. 2000, Lyons et al. 2004, Zhang et al. 2013). The apparatus used consists of a clear Plexiglas box (8×8×8 cm) with one open side, containing a small piece of marshmallow (Lyons et al. 2000, Lyons et al. 2004). The box is locked into place on a metallic platform hooked onto the front of the monkey cage. Control and MPTP-lesioned monkeys were scored for the average time and number of trials required to retrieve the marshmallow in 30 sec. The effect of ABT-126 administration was tested once weekly on Friday. […] These latter two sets of monkeys had previously been given ABT-894 and ABT-107 but using somewhat different treatment regimens. The present study was done after a 7 wk washout period, at which point LIDs were similar in all groups. ABT-126 was administered orally in a small cracker 30 min before L-dopa/carbidopa twice daily. […] It was provided in the drinking water starting at 50 μg/ml for 2 days, increased to 150 μg/ml for another two days and then maintained at 300 μg/ml. ABT-126 was tested at 0.03, 0.10, 0.30 and 1.0 mg/kg, with each dose of ABT-126 tested for 1 or 2 wk. Statistical analyses were done using GraphPad Prism. One- or two-way ANOVA was used for multiple group comparisons followed by a Newman-Keuls or Bonferroni post hoc test. Differences in rating scores between groups were analyzed using nonparametric tests (Mann-Whitney test). Data for rating scores was provided as the median (nonparametric) or mean±SEM (parametric). A value of P ≦0.05 is considered statistically significant. Values expressed are the mean±SEM of the indicated number of monkeys.

MPTP-lesioned monkeys [3] = assay: L-dopa-induced dyskinesias (LIDs) ratings in MPTP-lesioned monkeys; type: in vivo, squirrel monkeys (Saimiri sciureus)
Text: The objective of the current study was to test the effect of the α7 nAChR agonist ABT-126 for its ability to reduce L-dopa-induced dyskinesias (LIDs) in MPTP-lesioned monkeys. […] All monkeys were orally gavaged with L-dopa/carbidopa twice daily, which led to the development of stable abnormal involuntary movements or dyskinesias. […] These latter two sets of monkeys had previously been given ABT-894 and ABT-107 but using somewhat different treatment regimens. The present study was done after a 7 wk washout period, when LIDs were similar in all groups. ABT-126 was administered orally in a small cracker 30 min before L-dopa (10 mg/kg) and carbidopa (2.5 mg/kg). […] ABT-126 was tested at 0.03, 0.10, 0.30 and 1.0 mg/kg, with each dose of ABT-126 tested for 1 or 2 wk. […] ABT-126 at 0.10 mg/kg reduced LIDs by ˜40%, while the 0.30 and 1.0 mg/kg ABT-126 doses decreased LIDs up to 60%. We also tested the effect of ABT-126 (1.0 mg/kg) for its ability to reduce LIDs at a higher dose of L-dopa (15 mg/kg)/carbidopa (3.75 mg/kg). The higher dose of L-dopa led to greater LID scores in vehicle treated monkeys. […] The effect of ABT-126 was most pronounced during the latter weeks, possibly because of a greater decline with continued drug treatment. A washout is in progress to determine if LIDs return to vehicle-treated levels after ABT-126 discontinuation. There was no effect of the drug on parkinsonism or cognitive ability. Adult male and female squirrel monkeys (Saimiri sciureus) (n=21) weighing 0.6-1.2 kg were obtained from World Wide Primates (Miami, Fla.). The monkeys were quarantined for one month, as mandated by California state regulations. All studies were performed according to the NIH Guide for the Care and Use of Laboratory Animals, and were approved by the Institutional Animal Care and Use Committee at SRI. Animals were housed separately in a room maintained at 27±3° C., with a 12:12-h light/dark cycle. Monkey chow, fruits, and vegetables were provided over the course of the day, with water freely available. After quarantine, all monkeys were trained to perform various motor and other tasks for future assessment of parkinsonism and other behaviors (Quik et al. 2013b, Zhang et al. 2013, Quik et al. 2007, Quik et al. 2013a). They were then injected with saline (n=5) or 2.0 mg/kg 1-methyl-4-phenyl-1,2,3,6-tetrahydropyridine sc (MPTP; Sigma-Aldrich, St. Louis, Mo.) dissolved in saline (n=21), as described (Quik et al. 2013b, Zhang et al. 2013, Quik et al. 2007, Quik et al. 2013a). […] These include spatial hypokinesia (use of available cage space), body bradykinesia (slowness in body movement), manual dexterity in both left and right hands, balance (ability to hold on to the cage bars), freezing, and action tremor as described (Quik et al. 2013b, Zhang et al. 2013, Quik et al. 2007, Quik et al. 2013a). MPTP injections were repeated (1.5-1.9 mg/kg sc per time) if the monkeys were not parkinsonian and to maintain parkinsonism. Parkinsonism was rated once weekly on Monday. The monkeys were next orally gavaged with L-dopa (10 mg/kg) plus carbidopa (2.5 mg/kg), twice daily 4.5 h apart 5 d per wk, as described (Quik et al. 2013b, Zhang et al. 2013, Quik et al. 2007, Quik et al. 2013a). While treated with L-dopa, monkeys were given only fruits and vegetables in the morning to enhance L-dopa absorption. Monkey chow, as well as more fruits and vegetables, were given several hours after the second dose of L-dopa. The monkeys were taped from 8:00 to 8:30 AM, before the first dose of L-dopa to evaluate baseline movements and then from 8:30 to 12:30 PM, following the morning L-dopa dose, to evaluate dyskinesias. LIDs were rated from the video recordings for a 1 min period every 30 min. […]

AD = assay: Phase 2a study, symptomatic treatment of AD; type: in vivo, human
[4] = system: subjects with schizophrenia; assay: Tolerability in subjects with schizophrenia; type: in vivo, human; settings: doses up to 25 mg QD, including 10 mg QD and 25 mg QD
[5] = 300 μg/ml nicotine in the drinking water
[6] = ABT-126 1.0 mg/kg orally, higher L-dopa (15 mg/kg)/carbidopa (3.75 mg/kg), wk 6
[7] = 0.03 mg/kg ABT-126 orally, set 1
[8] = 0.03 mg/kg ABT-126 orally, set 2
[9] = ABT-126 orally, MPTP-lesioned L-dopa-treated monkeys
[10] = 0.3 mg/kg ABT-126 orally, set 1
[11] = 0.3 mg/kg ABT-126 orally, set 2

SMILES: CN1CCCC1c1cccnc1 (stereo not drawn) [Nicotine, nicotine, reference compound]
- Parkinsonian scores Before L-dopa (MPTP-lesioned monkeys [1]; [5]): 3.6 ± 0.4
- Parkinsonian scores After L-dopa (MPTP-lesioned monkeys [1]; [5]): 2.4 ± 0.4
- Attempts (MPTP-lesioned monkeys [2]; [5]): 23.8 ± 2.8
- Latency (MPTP-lesioned monkeys [2]; [5]): 19.2 ± 2.2 s

SMILES: c1ccc(-c2nnc(O[C@@H]3C4CC5C[C@H]3C[N@](C5)C4)s2)cc1 [ABT-126, (4s)-4-(5-phenyl-1,3,4-thiadiazol-2-yloxy)-1-azatricyclo[3.3.1.1^3,7]decane]
- effect on LIDs (MPTP-lesioned monkeys [3]; ABT-126 0.03 mg/kg orally 30 min before L-dopa (10 mg/kg)/carbidopa (2.5 mg/kg)): no significant effect
- reduction of LIDs (MPTP-lesioned monkeys [3]; ABT-126 0.10 mg/kg orally 30 min before L-dopa (10 mg/kg)/carbidopa (2.5 mg/kg)): ~40%
- hourly time course of LIDs, FIG. 2 (MPTP-lesioned monkeys [3]; ABT-126 0.3 mg/kg): maximal decline
- decrease of LIDs (MPTP-lesioned monkeys [3]; ABT-126 0.30 mg/kg orally 30 min before L-dopa (10 mg/kg)/carbidopa (2.5 mg/kg)): up to 60%
- decrease of LIDs (MPTP-lesioned monkeys [3]; ABT-126 1.0 mg/kg orally 30 min before L-dopa (10 mg/kg)/carbidopa (2.5 mg/kg)): up to 60%
- reduction of LIDs after the afternoon dose of L-dopa (MPTP-lesioned monkeys [3]; [6]): 60%
- reduction of LIDs after the morning dose of L-dopa (MPTP-lesioned monkeys [3]; [6]): 70%
- decrease of LIDs, total dyskinesia scores (% vehicle), FIG. 1 (MPTP-lesioned monkeys [3]; increasing doses of ABT-126 (0.03 to 1.0 mg/kg), each for a wk, L-dopa 10 mg/kg plus carbidopa 2.5 mg/kg): ≤ 70%
- Parkinsonian scores Before L-dopa (MPTP-lesioned monkeys [1]; [7]): 4.2 ± 0.4
- Parkinsonian scores After L-dopa (MPTP-lesioned monkeys [1]; [7]): 2.6 ± 0.4
- Parkinsonian scores Before L-dopa (MPTP-lesioned monkeys [1]; [8]): 3.4 ± 0.7
- Parkinsonian scores After L-dopa (MPTP-lesioned monkeys [1]; [8]): 2.2 ± 0.2
- effect on parkinsonism (MPTP-lesioned monkeys [1]; [9]): no effect
- Attempts (MPTP-lesioned monkeys [2]; [10]): 22.8 ± 3.2
- Latency (MPTP-lesioned monkeys [2]; [10]): 21.2 ± 2.8 s
- Attempts (MPTP-lesioned monkeys [2]; [11]): 18.0 ± 2.5
- Latency (MPTP-lesioned monkeys [2]; [11]): 18.3 ± 3.3 s
- effect on cognitive ability (MPTP-lesioned monkeys [2]; [9]): no effect
- efficacy in the symptomatic treatment of AD (AD): signal for efficacy
- tolerability [4]: well tolerated
